Experiments:
[1] = target: T1, ΔF508-CFTR (Homo sapiens, UniProt P13569, DEL508-508); assay: CFTR ubiquitination measurement (anti-HA IP, anti-ubiquitin blot); type: cell-based; settings: treatment alone; HeLa-ΔF508-CFTR-HA cells; 72 hrs; MG-132 10 μM last hour; relative to siScr
T1 construct: Here we studied native CFTR, SYVN1 and AMFR gene products in a relevant CF airway epithelial cell line; endogenous in cells; host or cells: CFBE41o- cells (also as polarized ALI cultures)
Description: Cells were treated with 10 μM MG-132 in the last 1-hour of incubation, and then lysed in lysis buffer (1% Triton, 25 mM Tris pH 7.4, 150 mM NaCl, protease inhibitors (cOmplete™, mini, EDTA-free, Roche), 5 mM N-ethylmaleimide (NEM) and 20 μM MG-132) for 30 min at 4° C. The lysates were centrifuged at 14,000 rpm for 20 min at 4° C., and the supernatant quantified by BCA Protein Assay kit (Pierce). CFTR was precipitated with the anti-HA antibody. The immunoprecipitates were analyzed by immunoblotting with anti-Ub and anti-HA antibodies. CFTR ubiquitination level with molecular masses >180 kDa was measured by densitometry and normalized for the CFTR level in the precipitate.
Immunoprecipitation (IP) experiments were performed in HeLa cells stably expressing ΔF508-CFTR-HA. To IP ΔF508-CFTR, cells were lysed (as described above), and supernatant (20-50 μg of protein) was incubated with either anti-HA (to IP CFTR) or anti-AMFR for 1 h at 4° C., followed by incubation with protein G-agarose (Invitrogen) for 1 h at 4° C. Immunoprecipitates were washed 4 times with lysis buffer and eluted in 6× sample-SDS buffer. Samples were analyzed by immunoblotting as described above.

[2] = test system: ΔF508-CFTR; settings: primary CF airway epithelia; reference 18; cited from earlier work

T1 sequence (P13569 with tags, fused parts or gaps DEL508-508): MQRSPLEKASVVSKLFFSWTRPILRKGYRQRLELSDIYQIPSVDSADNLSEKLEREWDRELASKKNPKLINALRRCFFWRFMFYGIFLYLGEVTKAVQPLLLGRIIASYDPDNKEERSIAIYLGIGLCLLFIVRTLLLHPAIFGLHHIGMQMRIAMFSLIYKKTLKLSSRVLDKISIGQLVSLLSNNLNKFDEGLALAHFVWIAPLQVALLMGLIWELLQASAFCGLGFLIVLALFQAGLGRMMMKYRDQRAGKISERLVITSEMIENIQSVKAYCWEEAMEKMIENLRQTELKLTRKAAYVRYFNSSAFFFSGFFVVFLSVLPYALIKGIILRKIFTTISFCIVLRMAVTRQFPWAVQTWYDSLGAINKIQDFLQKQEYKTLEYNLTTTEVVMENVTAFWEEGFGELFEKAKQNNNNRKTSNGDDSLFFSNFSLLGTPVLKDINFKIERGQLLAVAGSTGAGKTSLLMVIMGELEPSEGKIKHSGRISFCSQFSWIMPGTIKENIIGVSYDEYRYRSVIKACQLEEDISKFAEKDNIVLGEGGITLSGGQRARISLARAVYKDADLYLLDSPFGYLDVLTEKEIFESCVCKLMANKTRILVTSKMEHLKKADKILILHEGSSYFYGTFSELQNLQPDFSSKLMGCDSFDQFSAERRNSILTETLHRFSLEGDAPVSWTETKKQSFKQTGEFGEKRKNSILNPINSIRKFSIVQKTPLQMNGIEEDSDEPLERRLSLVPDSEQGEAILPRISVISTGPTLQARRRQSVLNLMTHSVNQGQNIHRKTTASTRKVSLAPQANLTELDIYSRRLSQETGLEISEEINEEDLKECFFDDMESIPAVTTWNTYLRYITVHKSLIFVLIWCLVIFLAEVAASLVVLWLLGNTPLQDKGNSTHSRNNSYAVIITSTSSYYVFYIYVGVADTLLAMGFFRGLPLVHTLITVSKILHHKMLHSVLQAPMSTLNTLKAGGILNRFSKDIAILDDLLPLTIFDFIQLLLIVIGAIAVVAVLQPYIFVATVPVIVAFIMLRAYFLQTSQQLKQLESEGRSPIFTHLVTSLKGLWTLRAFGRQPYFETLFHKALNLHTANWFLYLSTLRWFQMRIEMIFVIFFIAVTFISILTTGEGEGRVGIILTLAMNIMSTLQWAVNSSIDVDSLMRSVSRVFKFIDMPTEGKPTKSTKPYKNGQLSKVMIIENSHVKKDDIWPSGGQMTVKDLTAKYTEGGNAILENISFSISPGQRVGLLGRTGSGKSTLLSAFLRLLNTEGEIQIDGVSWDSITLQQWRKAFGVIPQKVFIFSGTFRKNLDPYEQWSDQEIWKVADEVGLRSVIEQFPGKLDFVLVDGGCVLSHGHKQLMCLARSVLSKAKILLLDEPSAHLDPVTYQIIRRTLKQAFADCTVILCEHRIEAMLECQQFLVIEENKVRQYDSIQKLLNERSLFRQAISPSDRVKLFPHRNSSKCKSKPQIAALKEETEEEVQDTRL

Compound: O=C(Nc1ncc(C(c2ccccc2Cl)N2CCC(O)C2)s1)C1(c2ccc3c(c2)OCO3)CC1 (centres unmarked) [C18, 1-(benzo[d][1,3]dioxol-5-yl)-N-(5-((2-chlorophenyl)(3-hydroxypyrrolidin-1-yl)methyl)thiazol-2-yl)cyclopropanecarboxamide]
- ΔF508-CFTR ubiquitination [1]: little impact on ΔF508-CFTR ubiquitination levels

Compound: miR-138 mimic: synthetic nucleic acid with miR-138-like activity, sense SEQ ID NO: 4, antisense SEQ ID NO: 5
- ΔF508-CFTR expression and Cl− transport [2]: concomitantly increased ΔF508-CFTR expression and Cl^− transport

Source: US20160108406A1, “METHOD OF REGULATING CFTR EXPRESSION AND PROCESSING” (UNIVERSITY OF IOWA RESEARCH FOUNDATION, priority 2014, published 2016)
